# Experimental data as given in patent publication US9115106B2, “Use of 5-hydroxy-2-hydroxymethyl-γ-pyrone (HMP) as a leishmanicidal agent” (UNIVERSIDADE FEDERAL DO PARA, priority 2008, dated 2015).
# Where “and” joins values, the source holds several entries; their conditions need not be identical. Equal entries are not always repeated.
# How the values were obtained:
# Leishmania promastigotes = experiment: Leishmanicidal activity on promastigotes; assay type: cell-based, L. amazonensis; settings: 50 μg/mL
# [1] = tested on: peritoneal murine macrophage cells; experiment: Morphological analysis of host cells by light, fluorescence and electron microscopy; assay type: cell-based; settings: treated cells compared with control cells
# Description: (§1) The peritoneal murine macrophage cells were cultured at 37° C. and 5% CO2 in Dulbecco's modified Eagle's medium (DMEM) supplemented with 10% heat-inactivated sterile filtered fetal bovine serum (FCS), 10 mM Hepes, pH 7.3, 100 U/mL penicillin and 100 µg/mL streptomycin (all from Gibco BRL/Life Technologies, Middlesex, UK). Cells were used after 24 hours of culture. Firstly, morphological alterations were observed by light and fluorescence microscopy, as well as transmission and scanning electron microscopy in host cells, treated or not with 10, 20 and 50 μg/mL of HMP diluted in DMEM. Viability analyses performed by through Thiazolyl Blue (MTT) e Neutral Red (NR) assays.
# [2] = tested on: bacteria (bacilos, Salmonella); settings: cited from earlier work
# tyrosinases 1 and 2 = settings: Schistosoma mansoni eggs; cited from earlier work
# [3] = tested on: bacteria from various genera; settings: Aerobacter, Bacillus, Escherichia, Staphylococcus and other genera; cited from earlier work
# thyroid = settings: continued administration of high doses, rats; cited from earlier work
# [4] = ideal doses of consumption; no risk in doses of 0.03-0.06 mg/kg/day; cited from earlier work
# [5] = water, ethanol, or acetone; cited from earlier work
# leukemia P388 = leukemia P388 in mice; cited from earlier work
# melasma = settings: HMP added to trichloroacetic acid and glycolic acid mixture; cited from earlier work
# [6] = tested on: L. amazonensis amastigotes in infected macrophages; experiment: Leishmanicidal activity on amastigotes during in vitro infection of macrophages; assay type: cell-based
# Description: (§2) The peritoneal murine macrophage cells were cultured at 37° C. and 5% CO2 in Dulbecco's modified Eagle's medium (DMEM) supplemented with 10% heat-inactivated sterile filtered fetal bovine serum (FCS), 10 mM Hepes, pH 7.3, 100 U/mL penicillin and 100 µg/mL streptomycin (all from Gibco BRL/Life Technologies, Middlesex, UK). Cells were used after 24 hours of culture. L. amazonensis promastigotes were obtained from the Evandro Chagas Institute in NNN medium and maintained at 26° C. in RPMI1640 medium. Host cells were cultivated and infected or not with L. amazonensis, before treating or not with HMP at the same concentrations described previously.
# [7] = estimated; cited from earlier work
# [8] = tested on: peritoneal murine macrophage cells; experiment: Cellular viability by MTT and Neutral Red assays; assay type: cell-based; settings: 10, 20 and 50 μg/mL HMP in DMEM
# Description: as §1, with “Firstly, morphological alterations were observed by light and fluorescence microscopy, as well as transmission and scanning electron microscopy in host cells, treated or not with 10, 20 and 50 μg/mL of HMP diluted in DMEM.” left out
# [9] = tested on: host cells infected with L. amazonensis; experiment: Superoxide production, histochemical assay with Nitro Blue Tetrazolium (NBT); assay type: cell-based, murine; settings: 50 μg/mL, compared with control cells
# Description: as §2, with “culture.” for “culture. L. amazonensis promastigotes were obtained from the Evandro Chagas Institute in NNN medium and maintained at 26° C. in RPMI1640 medium.”
# rats = settings: cited from earlier work
structure (smiles),measurement,setting,value
"O=c1cc(CO)occ1O [HMP, 5-hydroxy-2-hydroxymethyl-γ-pyrone]",inhibition at 50 µg/mL,Leishmania promastigotes,68%
same,host cell activation (morphology),[1],increase on actin filament polymerization and spreading
same,mutagenicity,[2],evidence in the literature regarding the mutagenicity of HMP in bacteria
same,inhibition of tyrosinase activity,tyrosinases 1 and 2,inhibit the activity of tyrosinases 1 and 2
same,antibacterial activity,[3],inhibition of bacteria from various genera
same,thyroid tumour induction,thyroid,induction of thyroid adenomas
same,toxic or genotoxic effects,[4],does not contain toxic or genotoxic effects
same,solubility,[5],freely soluble
same,antitumoural activity,leukemia P388,positive effects of antitumoural activity
same,effect on melasma treatment,melasma,improved treatment of melasma
same,minimal concentration with leishmanicidal activity,[6]; activating host cell microbicidal response,50 µg/mL
same,reduction in amastigotes during in vitro infection,[6]; cells treated with 50 μg/mL,79%
same,effect on intracellular amastigote (ultrastructural observations),[6]; parasites inside the macrophages,causing morphological alterations and death
same,pKa,[7],7.90 and 8.03
same,cytotoxic effect by MTT and NR assays,[8],not due to unspecific cytotoxic effect
same,superoxide production (NBT),[9],greater superoxide production
same,teratogenic effect,rats,did not cause any teratogenic effect
